In one test the test system is Bacillus subtilis. Put plainly: Time killing kinetics. In kind it is cell-based. Particulars: about 10^6 CFU/mL, LB, 37 °C, colony count. The procedure: In this study, we investigated the time-kill kinetics characteristics of plant cyclotides against bacteria. […] It is worth noting that due to experimental constraints, there was a slight discrepancy of a few minutes between theoretical 0 h and actual 0 h. […] Furthermore, we also conducted time-kill kinetics studies using vija 10 against B. subtilis.
Figure 4 (A) The Acinetobacter baumannii time killing kinetics of cycloviolacin O2 at concentration of 1 MIC, 2 MIC, 4 MIC and 8 MIC at 37 °C. (B) The Bacillus subtilis time killing kinetics of vija 10 at concentration of 1 MIC, 2 MIC, 4 MIC at 37 °C. Each test was performed three times at least.
Incubate A. baumannii and B. subtilis in fresh nutrient LB broth at 37 °C until logarithmic growth stage, then dilute to approximately 10^6 CFU/mL, and incubate with cycloviolacin O2 at concentrations of 1 MIC, 2 MIC, 4 MIC, 8 MIC with A. baumannii and vija 10 at concentrations of 1 MIC, 2 MIC, 4 MIC with B. subtilis respectively. Taking the mixture at time points of 0 h, 0.5 h, 1 h, 1.5 h and 2 h, dilute and coat it to solid medium for 24 h. Count the number of colonies on solid culture medium. Each test was performed three times at least. Plotting a line graph with time on the x-axis and bacterial survival on the y-axis using GraphPad Prism 8. Statistical analysis of bacterial viability at different time points to determine the bactericidal and bacteriostatic effects of cyclotides.

For test [1], the system named is 7402 (human hepatocellular carcinoma cells). As to the kind of experiment: MTT cytotoxicity assay. The class given is cell-based. Particulars: 7402 cells, 48 h incubation, mean ± SD of at least three repeats. The procedure: (§1) Five types of cells, namely A549 (human non-small cell lung cancer cells), T24 (human bladder cancer cells), 4T1 (mouse breast cancer cells), 7402 (human hepatocellular carcinoma cells), and THLE-3 (human hepatocytes cells), are selected for evaluating the cytotoxicity of viba 11, cycloviolacin O2, and vija 10 using the MTT (3-(4,5-dimethylthiazol-2-yl)-2,5-diphenyltetrazolium bromide) reagent.
(§2) To determine cell toxicity using MTT assay, cells are seeded in a 96-well plate and cultured for 24 h. After that, different concentrations of cyclotides are added to the cells and incubated for 48 h. MTT is then added to react with the cells, and after 4 h, the reaction is terminated by discarding the supernatant and adding dimethyl sulfoxide for resuspension. The absorbance at 570 nm is measured after 10 min of shaking at room temperature. Each test was performed three times at least. The data were analyzed using GraphPad Prism 8. During this process, the drug concentrations were transformed into logarithmic form with a base of 10 and plotted on the x-axis. Cell viability (%) = [A (cyclotides) − A (blank)]/[A (control) − A (blank)] × 100, which was represented on the y-axis. Using this method, we determined the IC50 value for each experiment, with each experiment repeated at least three times and the mean value calculated. The error was represented by the standard deviation of the IC50 obtained from three repetitions.

Test [2] relates to A549 (human non-small cell lung cancer cells). As to the kind of experiment: MTT cytotoxicity assay. The class given is cell-based. The settings on record: 48 h incubation, mean ± SD of at least three repeats. Here is the method:
as §1, §2

Test [3] deals with 4T1 (mouse breast cancer cells). Put plainly: MTT cytotoxicity assay. The class given is cell-based. The settings on record: 4T1 cells, 48 h incubation, mean ± SD of at least three repeats. Here is the method:
as §1, §2

Test [4] relates to T24 (human bladder cancer cells). As to the kind of experiment: MTT cytotoxicity assay. In kind it is cell-based. Particulars: 48 h incubation, mean ± SD of at least three repeats. The procedure:
as §1, §2

Test [5] relates to THLE-3 (human hepatocytes cells). Put plainly: MTT cytotoxicity assay. In kind it is cell-based. Particulars: THLE-3 cells, 48 h incubation, mean ± SD of at least three repeats. The procedure:
as §1, §2
For orientation: Tetrazolium dyes change colour on reduction, which living cells bring about.

The subject of test [6] is Acinetobacter baumannii (ATCC19606). As to the kind of experiment: microbe, parasite or virus in culture. Particulars: Acinetobacter baumannii ATCC19606; 10^6 CFU/ml, 96-well plate, overnight 37 °C, visual clarity; performed at least three times. The text has this: (§3) Viba 11, originally discovered in Viola baoshanensis[39] and found in other plants such as Viola tricolor[40], Viola betonicifolia, and Viola philippica, lacks biological activity studies. […] All purified cyclotides underwent antibacterial testing against Gram-positive bacterium Staphylococcus aureus (CMCC(B)26003-2-10) and Bacillus subtilis (CMCC(B)63501), Gram-negative bacteria, including Acinetobacter baumannii (ATCC19606), Escherichia coli (CMCC(B)44102-2-6), and Salmonella paratyphi (CMCC(B)50094-2-9).
(§4) Bacterial fluids are cultured overnight at 37 °C. The next day, the bacterial liquids are diluted to a concentration of 10^6 CFU/ml. Prepare different concentrations of cyclotide drugs and kanamycin sulfate in advance, and sequentially add the drugs and bacterial liquid to the 96-well plate. Negative controls consisted of sterile water and bacterial liquid. The plate is cultured overnight at 37 °C and observe whether the solution remains clear to see the growth of the bacterial suspension. Each test was performed three times at least.

For test [7], the system named is Escherichia coli (CMCC(B)44102-2-6). Put plainly: microbe, parasite or virus in culture. The settings on record: 10^6 CFU/ml, 96-well plate, overnight 37 °C, visual clarity, performed at least three times.
From the text: as §3, §4

Test [8] has as its system Bacillus subtilis (CMCC(B)63501). As to the kind of experiment: microbe, parasite or virus in culture. Particulars: 10^6 CFU/ml, 96-well plate, overnight 37 °C, visual clarity, performed at least three times.
From the text: as §3, §4

Converted amounts (≈) assume the structure as drawn. Residues, ends and D or L forms follow the SMILES beside them.

As usually defined, the IC50 is the midpoint of a concentration-inhibition curve. High values mean weaker potency, low ones greater potency. Consider `CC[C@H](C)[C@@H]1NC(=O)[C@@H]2CSSC[C@@H]3NC(=O)[C@H](C(C)C)NC(=O)[C@H](CCCCN)NC(=O)[C@H](CO)NC(=O)[C@H](CO)NC(=O)[C@@H]4CSSC[C@H](NC(=O)[C@H](CO)NC(=O)[C@H](CCC(=O)O)NC(=O)CNC(=O)[C@H](CSSC[C@H](NC(=O)CNC(=O)[C@H](CC(C)C)NC(=O)[C@H](CC(C)C)NC(=O)[C@H](C)NC(=O)[C@H](CO)NC1=O)C(=O)N[C@@H](CO)C(=O)N4)NC(=O)[C@@H]1CCCN1C(=O)[C@H]([C@@H](C)CC)NC(=O)[C@H](CO)NC(=O)CNC(=O)[C@H](CC(N)=O)NC(=O)[C@H](CCCCN)NC(=O)[C@H](Cc1ccc(O)cc1)NC3=O)C(=O)N[C@@H](C(C)C)C(=O)N[C@@H](Cc1ccccc1)C(=O)N[C@@H]([C@@H](C)CC)C(=O)N1CCC[C@H]1C(=O)N2` [vija 10] (HELM PEPTIDE1{A.L.L.G.C.S.C.S.S.K.V.C.Y.K.N.G.S.I.P.C.G.E.S.C.V.F.I.P.C.I.S}$PEPTIDE1,PEPTIDE1,5:R3-20:R3|PEPTIDE1,PEPTIDE1,7:R3-24:R3|PEPTIDE1,PEPTIDE1,12:R3-29:R3|PEPTIDE1,PEPTIDE1,1:R1-31:R2$$$V2.0), for which the “time of treatment to complete eradication of B. subtilis” value in the test on Bacillus subtilis (2 MIC) was 2 h. For the same molecule, in the test on Bacillus subtilis (4 MIC), the “time of treatment to effective killing of B. subtilis” value is 1 h. The IC50 was 2.18 ± 0.06 µM in test [1]; 0.733 ± 0.2 µM in test [2]; 0.244 ± 0.02 µM in test [3]; 3.28 ± 0.15 µM in test [4]; 2.09 ± 0.06 µM in test [5]. Besides, the figures for the MIC in [6], in test [7] and in [8] were 57 µM (≈ 179 µg/mL), above 28.5 µM and 14.3 µM (≈ 45 µg/mL), respectively.

For the origin of these results see paper PMC11056381, “Characterization and evaluation of cytotoxic and antimicrobial activities of cyclotides from Viola japonica” (Scientific Reports, 2024).
